pIC50: −log10 of the molar value. Like-named read-outs stand apart in the source and are kept apart here. Peptide text beside a SMILES is read from it. * marks the point of attachment. X1 = CC1(C)S[C@@H]2[C@H](NC(=O)C*)C(=O)N2[C@H]1C(=O)O
Legend:
PBP2a = target: T1, PBP2a (Staphylococcus aureus, UniProt P07944); test: biochemical; assay type: biochemical
T1 construct: The truncated PBP2a gene (Roychoudhury et al., J. Biol. Chem. 269:112067-12073, 1994) (cleaved yes); made in house; host or cells: E. coli BL21(DE3)

[1] = target: penicillin-binding protein 2a (PBP2a), truncated, recombinant from E. coli (Staphylococcus aureus (methicillin-resistant, MRSA)) (UniProt P07944); test: relative IC50: competition with biotinylated ampicillin for PBP2a
[2] = target: penicillin-binding protein 2a (PBP2a), truncated, recombinant from E. coli (Staphylococcus aureus (methicillin-resistant, MRSA)) (UniProt P07944); test: relative IC50: competition with biotinylated ampicillin for PBP2a, SDS-PAGE and streptavidin-HRP blot

**Q.** With `CO/N=C(\C(=O)N[C@@H]1C(=O)N2C(C(=O)O)=C(COC(C)=O)CS[C@H]12)c1csc(N)n1` [cefotaxime, reference compound] as the compound, how does the pIC50 (PBP2a) read?
**A.** 2.54

**Q.** For “LRNSNC(pen)IRHFF (residues 2-12 of SEQ ID NO: 5), synthetic peptide penicillanate conjugate”, which fold improvement compared to 6-aminopenicillanic acid [1] is on record?
**A.** 100 fold

**Q.** With “LRNSNC(COOH)IRHFF (residues 2-12 of SEQ ID NO: 5), peptide derivatized with bromoacetic acid” as the compound, how does the pIC50 [2] read?
**A.** < 1.46

**Q.** With `CC[C@H](C)[C@H](NC(=O)[C@H](CSCC(=O)N[C@@H]1C(=O)N2[C@@H]1SC(C)(C)[C@@H]2C(=O)O)NC(=O)[C@H](CC(N)=O)NC(=O)[C@H](CO)NC(=O)[C@H](CC(N)=O)NC(=O)[C@H](CCCNC(=N)N)NC(=O)[C@@H](N)CC(C)C)C(=O)N[C@@H](CCCNC(=N)N)C(=O)N[C@@H](Cc1c[nH]cn1)C(=O)N[C@@H](Cc1ccccc1)C(=O)N[C@@H](Cc1ccccc1)C(=O)O` [LRNSNC(pen)IRHFF] (H-LRNSNC(X1)IRHFF-OH) as the compound, how does the pIC50 (PBP2a; 2 μg pure PBP2a, conjugate 15 min at 37° C., then 20 μg biotinylated ampicillin 10 min, read-out: relative IC50) read?
**A.** ~2.15

**Q.** And the “improvement of PBP2a inhibition over the parent penam” value (PBP2a; as compared)?
**A.** about 100 fold

— patent US20030235852A1, “Nucleic acid-peptide display libraries containing peptides with unnatural amino acid residues, and methods of making same using peptide modifying agents” (priority 2002, published 2003)
